Reference: paper PMC4710668, “Bioactivation of food genotoxicants 5-hydroxymethylfurfural and furfuryl alcohol by sulfotransferases from human, mouse and rat: a comparative study” (Archives of Toxicology, 2014)

Tests used:
Assay in all cases: HMF sulfoconjugation assay
mSult5a1 = format: biochemical, mouse
Experimental: (§1) Cytosolic fractions containing individual SULT forms were prepared from transgenic S. typhimurium TA1538. Table S1 in the Supplementary Material provides a summary of the thirty SULTs used in the current study together with references describing the cloning of the respective S. typhimurium TA1538 strains. The expressed SULT forms are denoted with the prefixes h, m and r for human, mouse and rat enzymes, respectively. Bacteria were grown in Luria Broth medium containing ampicillin (100 µg/ml) by stirring for 8 h at 200 revolutions/min at 37 °C. The bacterial suspensions were centrifuged at 5,000 g for 10 min. The sediments were washed twice with 25 ml of 10 mM potassium phosphate buffer (pH 7.4)/50 mM potassium chloride (KCP buffer) and centrifuged again. The pellets were taken up in 800 µl KCP buffer and sonicated thrice for 15 s with 30 s pauses in between. The soluble fraction was attained by centrifuging for 1 h at 100,000 g. The supernatants (in the following termed cytosolic preparations) were frozen at −80 °C. The protein concentrations were determined according to a bicinchoninic acid (BCA) assay protocol. The SULT concentrations in the cytosolic preparations were estimated after electrophoretic separation and immunodetection using inclusion bodies of different SULT forms as standards (Teubner et al. [2007]). The preparation of SULT inclusion bodies and the immunodetection of SULTs is described in the Supplementary Material, which also contains a representative immunoblot of different amounts of rSult1a1standard and a cytosolic preparation of S. typhimurium expressing rSult1a1 (Fig. S1).
(§2) The reactions were conducted in mixtures of 100 µl containing 25–200 µg protein, 50 mM potassium phosphate buffer (pH 7.4), 5 mM MgCl2, 50 µM PAPS and different concentrations of HMF at 37 °C. Preliminary experiments ensured that measurements were recorded under ‘linear’ conditions, i.e., doubling of protein concentration or incubation time was doubling the amount of sulfate ester formed. The reactions were stopped after 30 min by adding 300 µl ice-cold 2-propanol, mixed and centrifuged at 15,000 g for 10 min.
(§3) SMF concentrations of the clear supernatants were analyzed by UPLC-MS/MS. The protocol was adapted from the quantification of SMF in plasma samples of HMF-treated mice (Monien et al. [2009]). In short, the supernatants were analyzed using a UPLC system (Waters) connected to a Quattro Premier XE tandem quadrupole mass spectrometer (Waters) using the negative electrospray ionization mode. Samples of 4 µl were injected into a HSS T3 column (1.8 µm, 2.1 × 100 mm; Waters) and eluted with an isocratic flow of 0.35 ml/min 10 mM ammonium acetate/methanol (95:5). The fragmentation reactions of SMF yielding two principal ions, the sulfate ion radical (m/z = 204.9 → 96.0) and the protonated sulfonate ion (m/z = 204.9 → 81.0) were monitored. The tune parameters were as follows: temperature of the electrospray source 120 °C; desolvation temperature 475 °C; desolvation gas nitrogen (800 l/h); cone gas nitrogen (100 l/h); collision gas argon (indicated cell pressure ~5 × 10^−3 mbar). For the fragmentation of SMF, collision energies were 20 and 23 eV for the transitions m/z = 204.9 → 81.0 and m/z = 204.9 → 96.0, respectively. The dwell time was set to 100 ms, and capillary voltage was set to 0.35 kV. The cone and RF1 lens voltages were 32 and 0.2 V, respectively. SMF was quantified using an external calibration line that was linear in the concentration range of 1.0 nM (4 fmol/injection) to 2,500 (10 pmol/injection) SMF (r ^2 ≥ 0.99). Data acquisition and handling were performed with MassLynx 4.1 software (Waters). The limit of detection (LOD) for this technique of 2.5 nM SMF has been reported (Monien et al. [2009]). In the current study, this corresponds to 10 fmol SMF per injection or a reaction rate of 0.5 pmol SMF/mg/min.

rSult2a3 = format: biochemical, rat
Experimental: as §1, §2, §3

rSult2a4 = format: biochemical, rat
Experimental: as §1, §2, §3

hSULT1E1 = target: T1, hSULT1E1 (Homo sapiens, UniProt P49888); format: biochemical
T1 construct: made in house; host or cells: Salmonella typhimurium TA1538 (cytosolic fraction, not purified)
T1 sequence (P49888 1-294): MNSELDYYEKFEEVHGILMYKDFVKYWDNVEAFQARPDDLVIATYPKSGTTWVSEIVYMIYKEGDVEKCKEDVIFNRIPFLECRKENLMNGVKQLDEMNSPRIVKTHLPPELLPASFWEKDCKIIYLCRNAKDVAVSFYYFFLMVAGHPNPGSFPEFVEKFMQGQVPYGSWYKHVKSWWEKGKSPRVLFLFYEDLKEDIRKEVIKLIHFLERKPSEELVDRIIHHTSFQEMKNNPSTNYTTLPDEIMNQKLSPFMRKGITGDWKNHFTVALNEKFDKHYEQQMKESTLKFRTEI
Summary of the method: (§4)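 SULT cytosol from TA1538, 25–200 µg protein; KPi 50 mM pH 7.4, MgCl2 5 mM, PAPS 50 µM; HMF varied; 37 °C, 30 min; stop with ice-cold 2-propanol; SMF by UPLC-MS/MS, LOD 0.5 pmol SMF/mg/min.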

hSULT2B1b = target: T2, hSULT2B1b (Homo sapiens, UniProt O00204); format: biochemical
T2 construct: made in house; host or cells: Salmonella typhimurium TA1538 (cytosolic fraction, not purified)
T2 sequence (O00204 1-365): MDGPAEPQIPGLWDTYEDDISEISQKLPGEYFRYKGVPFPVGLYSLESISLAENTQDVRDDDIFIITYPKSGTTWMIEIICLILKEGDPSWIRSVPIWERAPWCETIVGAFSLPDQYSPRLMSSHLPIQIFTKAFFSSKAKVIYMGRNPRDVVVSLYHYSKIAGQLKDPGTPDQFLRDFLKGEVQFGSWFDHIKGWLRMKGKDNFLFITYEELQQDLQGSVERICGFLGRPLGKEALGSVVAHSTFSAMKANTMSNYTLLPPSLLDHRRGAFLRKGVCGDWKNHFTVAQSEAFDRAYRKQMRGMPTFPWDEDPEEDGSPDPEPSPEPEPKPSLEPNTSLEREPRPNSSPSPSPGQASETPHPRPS
Summary of the method: as §4

hSULT1A3 = target: T3, hSULT1A3 (Homo sapiens, UniProt P0DMM9); format: biochemical
T3 construct: made in house; host or cells: Salmonella typhimurium TA1538 (cytosolic fraction, not purified)
Summary of the method: as §4

mSult1d1 = target: T4, mSult1d1 (Mus musculus, UniProt Q3UZZ6); format: biochemical
T4 construct: made in house; host or cells: Salmonella typhimurium TA1538 (cytosolic fraction, enzyme not purified)
Summary of the method: as §4

[1] = HMF sulfoconjugation, Michaelis-Menten fit

T3 sequence (P0DMM9 whole entry): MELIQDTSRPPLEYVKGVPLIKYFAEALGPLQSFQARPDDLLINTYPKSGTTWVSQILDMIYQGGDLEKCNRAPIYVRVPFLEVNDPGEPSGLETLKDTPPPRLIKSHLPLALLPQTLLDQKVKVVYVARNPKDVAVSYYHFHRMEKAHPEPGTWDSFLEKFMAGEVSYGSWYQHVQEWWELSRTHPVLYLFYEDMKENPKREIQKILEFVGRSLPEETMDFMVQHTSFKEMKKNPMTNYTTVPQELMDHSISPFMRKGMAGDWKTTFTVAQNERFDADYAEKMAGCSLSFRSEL
T4 sequence (Q3UZZ6 whole entry): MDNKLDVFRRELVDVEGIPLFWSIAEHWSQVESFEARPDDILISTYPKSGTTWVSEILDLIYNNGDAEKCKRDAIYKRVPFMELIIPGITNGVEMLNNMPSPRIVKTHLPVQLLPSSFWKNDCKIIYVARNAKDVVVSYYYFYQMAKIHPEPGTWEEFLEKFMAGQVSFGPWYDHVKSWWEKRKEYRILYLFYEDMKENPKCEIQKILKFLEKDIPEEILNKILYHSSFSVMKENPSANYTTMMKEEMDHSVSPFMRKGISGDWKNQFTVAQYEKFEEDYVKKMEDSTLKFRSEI

## O=Cc1ccc(CO)o1 [HMF, 5-Hydroxymethylfurfural]
mSult5a1; 0.1 mM HMF
  Rate of sulfoconjugation: <0.5 pmol/mg/min
mSult5a1; 1 mM HMF
  Rate of sulfoconjugation: <0.5 pmol/mg/min
mSult5a1; 10 mM HMF
  Rate of sulfoconjugation: <0.5 pmol/mg/min
mSult5a1; 100 mM HMF
  Rate of sulfoconjugation: <0.5 pmol/mg/min
rSult2a3; 0.1 mM HMF
  Rate of sulfoconjugation: 0.6 ± 0.0 pmol/mg/min
rSult2a3; 1 mM HMF
  Rate of sulfoconjugation: 6.2 ± 0.2 pmol/mg/min
rSult2a3; 10 mM HMF
  Rate of sulfoconjugation: 62.8 ± 4.6 pmol/mg/min
rSult2a3; 100 mM HMF
  Rate of sulfoconjugation: 76.5 ± 8.8 pmol/mg/min
rSult2a4; 0.1 mM HMF
  Rate of sulfoconjugation: <0.5 pmol/mg/min
rSult2a4; 1 mM HMF
  Rate of sulfoconjugation: <0.5 pmol/mg/min
rSult2a4; 10 mM HMF
  Rate of sulfoconjugation: <0.5 pmol/mg/min
rSult2a4; 100 mM HMF
  Rate of sulfoconjugation: <0.5 pmol/mg/min
hSULT1E1; 0.1 mM HMF
  Rate of sulfoconjugation: <0.5 pmol/mg/min
hSULT1E1; 1 mM HMF
  Rate of sulfoconjugation: 1.0 ± 0.2 pmol/mg/min
hSULT1E1; 10 mM HMF
  Rate of sulfoconjugation: 5.7 ± 0.8 pmol/mg/min
hSULT1E1; 100 mM HMF
  Rate of sulfoconjugation: 7.7 ± 1.2 pmol/mg/min
hSULT2B1b; 0.1 mM HMF
  Rate of sulfoconjugation: <0.5 pmol/mg/min
hSULT2B1b; 1 mM HMF
  Rate of sulfoconjugation: <0.5 pmol/mg/min
hSULT2B1b; 10 mM HMF
  Rate of sulfoconjugation: <0.5 pmol/mg/min
hSULT2B1b; 100 mM HMF
  Rate of sulfoconjugation: <0.5 pmol/mg/min
hSULT1A3; 0.1 mM HMF
  Rate of sulfoconjugation: 1.2 ± 0.1 pmol/mg/min
hSULT1A3; 1 mM HMF
  Rate of sulfoconjugation: 12.1 ± 1.5 pmol/mg/min
hSULT1A3; 10 mM HMF
  Rate of sulfoconjugation: 117 ± 12 pmol/mg/min
hSULT1A3; 100 mM HMF
  Rate of sulfoconjugation: 406 ± 39 pmol/mg/min
hSULT1A3; [1]
  K M: 16.7 ± 1.8 mM
mSult1d1; 0.1 mM HMF
  Rate of sulfoconjugation: 124 ± 33 pmol/mg/min
mSult1d1; 1 mM HMF
  Rate of sulfoconjugation: 1,160 ± 260 pmol/mg/min
mSult1d1; 10 mM HMF
  Rate of sulfoconjugation: 6,750 ± 1,190 pmol/mg/min
mSult1d1; 100 mM HMF
  Rate of sulfoconjugation: 22,400 ± 2,400 pmol/mg/min
mSult1d1; [1]
  K M: 31.9 ± 5.7 mM
